# Test results as given in publication PMC8878140, “Inhibitory Effects of Nitrogenous Metabolites from a Marine-Derived Streptomyces bacillaris on Isocitrate Lyase of Candida albicans” (Marine Drugs, 2022).
# Legend:
# isocitrate lyase (ICL) [1] = molecular target: T1, isocitrate lyase (ICL) (Candida albicans, UniProt Q9P8Q7); assay: biochemical
# T1 construct: gene ICL1; purified recombinant ICL
# isocitrate lyase (ICL) [2] = molecular target: T1, isocitrate lyase (ICL); assay: enzyme assay, absorbance at […] nm (phenylhydrazine); Lineweaver-Burk and Dixon plots; type: biochemical
# T1 sequence (Q9P8Q7 whole entry): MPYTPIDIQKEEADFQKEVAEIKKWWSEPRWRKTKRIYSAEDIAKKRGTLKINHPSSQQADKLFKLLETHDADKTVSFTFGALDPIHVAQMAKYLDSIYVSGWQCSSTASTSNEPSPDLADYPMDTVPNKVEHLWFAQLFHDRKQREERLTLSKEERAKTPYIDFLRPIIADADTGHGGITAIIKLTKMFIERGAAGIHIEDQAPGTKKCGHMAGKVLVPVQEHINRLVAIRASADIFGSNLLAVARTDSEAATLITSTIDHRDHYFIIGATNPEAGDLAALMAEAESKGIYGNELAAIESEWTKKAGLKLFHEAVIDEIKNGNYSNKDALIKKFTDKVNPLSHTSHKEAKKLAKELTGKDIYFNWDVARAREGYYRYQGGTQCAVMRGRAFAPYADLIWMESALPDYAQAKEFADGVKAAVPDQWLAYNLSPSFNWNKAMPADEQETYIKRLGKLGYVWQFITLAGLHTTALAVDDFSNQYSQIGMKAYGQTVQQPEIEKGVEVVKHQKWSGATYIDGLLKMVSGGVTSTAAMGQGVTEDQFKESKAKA
compound,measurement,setting,value
"O=C(O)CC[N+](=O)[O-] [3-nitropropionate, reference compound]",IC50,isocitrate lyase (ICL) [1],21.5 µM
"CS[C@]12CC[C@H](O)[C@H]1C(=O)NC2=O [compound 1, bacillimide]",IC50,isocitrate lyase (ICL) [2],44.2 µM
"C[S+]([O-])CCNC(=O)c1ccc[nH]1 (stereo not drawn) [compound 2, N-(2-(methylsulfinyl)ethyl)-1H-pyrrole-2-carboxamide]",IC50,isocitrate lyase (ICL) [1]; read-out: ICL IC50,190 µM
